Experimental data as given in patent publication EP3714904B1, “IMINODIACETIC ACID SUBSTITUTED CYCLODEXTRINS AS POTENTIATORS OF BETA-LACTAM ANTIBIOTICS” (NATIONAL CENTER FOR SCIENTIFIC RESEARCH "DEMOKRITOS" (NCSRD), priority 2019, dated 2020).
Where two headings read alike, the source gives them in different places.

Columns and labels:
Test in all cases: MIC of β-lactams alone or with 50 µM IDACYD against clinical isolates
Type in all cases: cell-based
[1] = test system: Serratia marcescens; settings: Serratia marcescens, isolate EUG-815 (VIM, CMY), alone
Protocol: (§1) Further the in-vitro inhibitory activity of IDACYDs was tested against highly resistant pathogens. Tables 3, 4 and 5 show the effect of IDACYDs using a collection of 36 highly resistant Gram negative strains (Table 2, Kirby-Bauer disc diffusion method) producing NDM, VIM and IMP type MBLs as well as 6 isolates expressing serine beta-lactamases (ESBLs, AmpCs). […] Clinical isolates co-expressing ESBLs and/or AmpC β-lactamases along with MBLs where re-sensitized to both imipenem and meropenem, as expected. Table 2: Collection of clinical isolates used for in-vitro evaluation

[2] = test system: Providencia stuartii; settings: Providencia stuartii, alone
Protocol: as §1

[3] = test system: Escherichia coli; settings: Escherichia coli, alone
Protocol: as §1

[4] = test system: Proteus mirabilis; settings: Proteus mirabilis, alone
Protocol: as §1

[5] = test system: Klebsiella pneumoniae; settings: for MIC: Klebsiella pneumoniae, alone; for Imipenem + α-IDACYD MIC / Meropenem + α-IDACYD MIC: IDACYD 50 μM
Protocol: Further the in-vitro inhibitory activity of IDACYDs was tested against highly resistant pathogens. […] Table 2: Collection of clinical isolates used for in-vitro evaluation

[6] = test system: Acinetobacter baumannii; settings: Acinetobacter baumannii, alone, read-out: Imipenem MIC
Protocol: as §1

[7] = test system: Enterobacter gergoviae; settings: Pluralibacter gergoviae, alone, read-out: Imipenem MIC
Protocol: as §1

Structure (SMILES): CC(C)(O/N=C(\C(=O)N[C@@H]1C(=O)N2C(C(=O)[O-])=C(C[n+]3ccccc3)CS[C@H]12)c1csc(N)n1)C(=O)O [Ceftazidime, reference compound]
- MIC ([1]; read-out: Ceftazidime MIC): > 256 µg/mL
- MIC ([2]; isolate ALX- 21 (VIM, VEB), read-out: Ceftazidime MIC): 128 µg/mL
- MIC ([2]; isolate ESDY-4559 (VIM), read-out: Ceftazidime MIC): 8 µg/mL
- MIC ([3]; isolate TZAN-116 (VIM), read-out: Ceftazidime MIC): > 256 µg/mL
- MIC ([4]; isolate ESDY-15184 (VIM, CMY), read-out: Ceftazidime MIC): > 256 µg/mL
- MIC ([5]; isolate ALX-47 (OXA-48,CTX-M), read-out: Ceftazidime MIC): > 256 µg/mL
- MIC ([5]; isolate ESDY-5742 (IMP), read-out: Ceftazidime MIC): > 256 µg/mL
- MIC ([5]; isolate LA-28 (NDM, CTXM), read-out: Ceftazidime MIC): > 256 µg/mL
- MIC ([5]; isolate LA-82/16 (VIM, SHV), read-out: Ceftazidime MIC): > 256 µg/mL
- MIC ([5]; isolate LA-109/16 (VIM, CTXM), read-out: Ceftazidime MIC): > 256 µg/mL
- MIC ([5]; isolate LAR-4011/15, read-out: Ceftazidime MIC): 32 µg/mL
- MIC ([5]; isolate UoA 12/227 (VIM), read-out: Ceftazidime MIC): > 256 µg/mL
- MIC ([5]; isolate UoA 1995 (VIM), read-out: Ceftazidime MIC): > 256 µg/mL

Structure (SMILES): C[C@@H](O)[C@H]1C(=O)N2C(C(=O)O)=C(SCCN=CN)C[C@H]12 [Imipenem, reference compound]
- MIC ([1]; read-out: Imipenem MIC): 16 µg/mL
- MIC ([6]; isolate TZAN-40 (VIM, OXA-58)): 4 µg/mL
- MIC ([6]; isolate TZAN-42 (VIM, OXA-58)): 8 µg/mL
- MIC ([2]; isolate ALX- 21 (VIM, VEB), read-out: Imipenem MIC): 8 µg/mL
- MIC ([2]; isolate ALX-27 (VIM), read-out: Imipenem MIC): 16 µg/mL
- MIC ([2]; isolate ESDY-4559 (VIM), read-out: Imipenem MIC): 4 µg/mL
- MIC ([2]; isolate ESDY-4563 (VIM, VEB), read-out: Imipenem MIC): 4 µg/mL
- MIC ([7]; isolate AK-5227 (VIM, CMY)): 8 µg/mL
- MIC ([7]; isolate AK-5240 (VIM, CMY)): 8 µg/mL
- MIC ([3]; isolate TZAN-116 (VIM), read-out: Imipenem MIC): 4 µg/mL
- MIC ([3]; isolate TZAN-541 (VIM), read-out: Imipenem MIC): 4 µg/mL
- MIC ([4]; Table 5, Pr m ESDY 15315 (VIM-1, CMY), read-out: Imipenem MIC): 16 µg/mL
- MIC ([4]; isolate ALX-13 (VIM, VEB), read-out: Imipenem MIC): 8 µg/mL
- MIC ([4]; isolate ESDY-17 (VIM, CMY), read-out: Imipenem MIC): 4 µg/mL
- MIC ([4]; isolate ESDY-15184 (VIM, CMY), read-out: Imipenem MIC): 8 µg/mL
- MIC ([4]; isolate ESDY-15315 (VIM, CMY), read-out: Imipenem MIC): 16 µg/mL
- MIC ([5]; Table 5, Kpn ESDY 5742 (IMP-1), read-out: Imipenem MIC): 8 µg/mL
- MIC ([5]; Table 5, Kpn LA 26 (NDM-1), read-out: Imipenem MIC): 16 µg/mL
- MIC ([5]; Table 5, Kpn LA 34 (VIM-1 CMY), read-out: Imipenem MIC): 16 µg/mL
- MIC ([5]; Table 5, Kpn LA 82/16 (VIM-1), read-out: Imipenem MIC): 64 µg/mL
- MIC ([5]; Table 5, Kpn LA 109/16 (VIM-1), read-out: Imipenem MIC): 16 µg/mL
- MIC ([5]; Table 5, Kpn LA419/16 (NDM-1), read-out: Imipenem MIC): 8 µg/mL
- MIC ([5]; Table 5, Kpn LAR 37II/15 (NDM-1, VIM-1, CTXM), read-out: Imipenem MIC): 64 µg/mL
- MIC ([5]; isolate 6/100 (VIM), read-out: Imipenem MIC): 32 µg/mL
- MIC ([5]; isolate 2489 (NDM), read-out: Imipenem MIC): 32 µg/mL
- MIC ([5]; isolate 2685 (VIM, CMY, CTXM), read-out: Imipenem MIC): 32 µg/mL
- MIC ([5]; isolate ALX-47 (OXA-48,CTX-M), read-out: Imipenem MIC): 4 µg/mL
- MIC ([5]; isolate ESDY-1780 (VIM, KPC), read-out: Imipenem MIC): 16 µg/mL
- MIC ([5]; isolate ESDY-2681 (VIM-27), read-out: Imipenem MIC): 16 µg/mL
- MIC ([5]; isolate ESDY-5742 (IMP), read-out: Imipenem MIC): 8 µg/mL
- MIC ([5]; isolate EY-20S (CMY, SHV), read-out: Imipenem MIC): 2 µg/mL
- MIC ([5]; isolate IT-17829 (CTXM, SHV), read-out: Imipenem MIC): 1 µg/mL
- MIC ([5]; isolate L078/11 (KPC), read-out: Imipenem MIC): 32 µg/mL
- MIC ([5]; isolate LA-26 (NDM), read-out: Imipenem MIC): 16 µg/mL
- MIC ([5]; isolate LA-27 (NDM, CTXM), read-out: Imipenem MIC): 8 µg/mL
- MIC ([5]; isolate LA-28 (NDM, CTXM), read-out: Imipenem MIC): 8 µg/mL
- MIC ([5]; isolate LA-34 (VIM, CMY), first entry of Table 3, read-out: Imipenem MIC): 32 µg/mL
- MIC ([5]; isolate LA-34 (VIM, CMY), second entry of Table 3, read-out: Imipenem MIC): 32 µg/mL
- MIC ([5]; isolate LA-38 (NDM), read-out: Imipenem MIC): 8 µg/mL
- MIC ([5]; isolate LA-82/16 (VIM, SHV), read-out: Imipenem MIC): 8 µg/mL
- MIC ([5]; isolate LA-109/16 (VIM, CTXM), read-out: Imipenem MIC): 16 µg/mL
- MIC ([5]; isolate LA-419/16 (NDM,CTXM), read-out: Imipenem MIC): 4 µg/mL
- MIC ([5]; isolate LA-470/17 (NDM), read-out: Imipenem MIC): 8 µg/mL
- MIC ([5]; isolate LAR-26I/15 (NDM, VIM, CTXM), read-out: Imipenem MIC): 16 µg/mL
- MIC ([5]; isolate LAR-37II/15 (NDM, VIM, CTXM), read-out: Imipenem MIC): 64 µg/mL
- MIC ([5]; isolate LAR-38I/15 (VIM, NDM, CTXM), read-out: Imipenem MIC): 4 µg/mL
- MIC ([5]; isolate LAR-40II/15 (KPC), read-out: Imipenem MIC): 16 µg/mL
- MIC ([5]; isolate LAR-2873 (VIM-12), read-out: Imipenem MIC): 4 µg/mL
- MIC ([5]; isolate LAR-7547 (NDM, VIM, CTXM), read-out: Imipenem MIC): 64 µg/mL
- MIC ([5]; isolate SEC-2 (VIM), read-out: Imipenem MIC): 32 µg/mL
- MIC ([5]; isolate SEC-4 (VIM), read-out: Imipenem MIC): 64 µg/mL
- MIC ([5]; isolate TZAN-59 (β-lactamase: None), read-out: Imipenem MIC): 1 µg/mL
- MIC ([5]; isolate UoA 12/227 (VIM), read-out: Imipenem MIC): 8 µg/mL
- MIC ([5]; isolate UoA 1995 (VIM), read-out: Imipenem MIC): 8 µg/mL

Structure (SMILES): CO[C@@H]1[C@@H](OC)[C@H]2O[C@H]3[C@H](OC)[C@@H](OC)[C@@H](O[C@H]4[C@H](OC)[C@@H](OC)[C@@H](O[C@H]5[C@H](OC)[C@@H](OC)[C@@H](O[C@H]6[C@H](OC)[C@@H](OC)[C@@H](O[C@H]7[C@H](OC)[C@@H](OC)[C@@H](O[C@@H]1[C@@H](CN(CC(=O)O)CC(=O)O)O2)O[C@@H]7CN(CC(=O)O)CC(=O)O)O[C@@H]6CN(CC(=O)O)CC(=O)O)O[C@@H]5CN(CC(=O)O)CC(=O)O)O[C@@H]4CN(CC(=O)O)CC(=O)O)O[C@@H]3CN(CC(=O)O)CC(=O)O [α-IDACYD]
- Imipenem + α-IDACYD MIC ([5]; Kpn ESDY 5742 (IMP-1)): <0.25 µg/mL
- Meropenem + α-IDACYD MIC ([5]; Kpn ESDY 5742 (IMP-1)): <0.25 µg/mL
- Imipenem + α-IDACYD MIC ([5]; Kpn LA 34 (VIM-1 CMY)): <0.5 µg/mL
- Meropenem + α-IDACYD MIC ([5]; Kpn LA 34 (VIM-1 CMY)): <0.5 µg/mL
- Imipenem + α-IDACYD MIC ([5]; Kpn LA 82/16 (VIM-1)): <0.25 µg/mL
- Meropenem + α-IDACYD MIC ([5]; Kpn LA 82/16 (VIM-1)): <0.25 µg/mL
- Imipenem + α-IDACYD MIC ([5]; Kpn LA 109/16 (VIM-1)): <0.25 µg/mL
- Meropenem + α-IDACYD MIC ([5]; Kpn LA 109/16 (VIM-1)): <0.25 µg/mL
- Imipenem + α-IDACYD MIC ([5]; Kpn LA419/16 (NDM-1)): <0.25 µg/mL
- Meropenem + α-IDACYD MIC ([5]; Kpn LA419/16 (NDM-1)): <0.25 µg/mL
